Data on 33 compounds can be found in patent publication US11377442B2, “Small molecule agonists and antagonists of NR2F6 activity” (ZANDER THERAPEUTICS, INC., priority 2016, dated 2022).

Like-named read-outs stand apart in the source and are kept apart here.

The experiment addresses T1, NR2F6 (Homo sapiens, UniProt P10588).
T1 construct: expressed in transfected cells; also transient transfection
T1 sequence (P10588 1-404): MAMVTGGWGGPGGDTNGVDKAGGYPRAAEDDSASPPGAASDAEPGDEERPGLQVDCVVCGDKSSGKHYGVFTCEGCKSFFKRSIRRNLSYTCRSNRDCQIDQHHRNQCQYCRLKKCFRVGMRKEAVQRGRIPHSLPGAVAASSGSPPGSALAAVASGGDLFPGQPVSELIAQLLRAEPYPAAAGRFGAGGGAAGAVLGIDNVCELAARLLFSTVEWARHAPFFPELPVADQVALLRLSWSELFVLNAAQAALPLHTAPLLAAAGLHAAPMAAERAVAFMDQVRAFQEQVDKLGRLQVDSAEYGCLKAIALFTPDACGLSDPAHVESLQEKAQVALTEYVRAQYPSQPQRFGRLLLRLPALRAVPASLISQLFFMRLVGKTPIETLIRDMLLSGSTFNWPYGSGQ
Briefly: NR2F6 agonist screening, Firefly signal cmpd/DMSO. Type of experiment: cell-based. More on the design: Firefly NR2F6 full length, cmpd/DMSO (mean) / Firefly F4, cmpd/DMSO (mean): unit of the concentration uncertain. Particulars: for Firefly/Renilla (NR2F6 stable, clone F4): ratio Firefly/Renilla; for Firefly, NR2F6 stable (clone F4)/pGL4: ratio of Firefly in NR2F6 stable clone F4 to pGL4.

Setting [1] is: C11 analogs follow set (Tables 2-10).
Setting [2] is: Concentration 2 (unit uncertain).
Setting [3] is: Concentration 10 (unit uncertain).
The mark [4] stands for this setting: Concentration 40 (unit uncertain).

`Cc1cccc(NC(=O)c2ccc3oc(=O)c(S(=O)(=O)c4ccc(Cl)cc4)cc3c2)c1` [Compound C173]: under setting [1], the “Firefly, cmpd/DMSO repeat 1” value was 9.8 and the “Firefly, cmpd/DMSO repeat 2” value came to 6.9.

For the compound `CC(=O)Nc1ccc(Cl)c2nonc12` [Compound Z113], the “Firefly, cmpd/DMSO (mean)” value is 1.0. Under “Concentration 2”, the “Firefly, cmpd/DMSO (mean)” value amounted to 1.3 and the “F4, cmpd/DMSO (mean)” value came out at 1.2. Besides, under “Concentration 10”, the “Firefly, cmpd/DMSO (mean)” value turned out to be 1.1 and the “F4, cmpd/DMSO (mean)” value amounted to 1.5. Besides, where the note is “Concentration 40”, the “Firefly, cmpd/DMSO (mean)” value was 0.9 and the “F4, cmpd/DMSO (mean)” value is recorded as 1.2.

In the case of `O=c1oc2ccc(Cl)cc2cc1S(=O)(=O)c1ccccc1` [Compound C201], under setting [1], the “Firefly, cmpd/DMSO repeat 1” value is 6.1 and the “Firefly, cmpd/DMSO repeat 2” value amounted to 5.3.

Take `O=c1oc2ccc(Br)cc2cc1S(=O)(=O)c1ccc(F)cc1` [Compound C198]: under setting [1], the “Firefly, cmpd/DMSO repeat 1” value came out at 1.0 and the “Firefly, cmpd/DMSO repeat 2” value amounted to 0.8.

Take `COc1cccc(NC(=O)c2ccc3oc(=O)c(S(=O)(=O)c4ccc(F)cc4)cc3c2)c1` [Compound C127]: under setting [1], the “Firefly, cmpd/DMSO repeat 1” value came to 36.7 and the “Firefly, cmpd/DMSO repeat 2” value came to 56.2. For the same compound, where the note is “Table 13”, the “Firefly/Renilla (NR2F6 stable, clone F4)” value was 1.1; the “Firefly, NR2F6 stable (clone F4)/pGL4” value is 5.7; the “Firefly, cmpd/DMSO repeat 1” value was found to be 36.7; the “Firefly, cmpd/DMSO repeat 2” value is 56.2.

Take `N#Cc1cccc(S(=O)(=O)c2cc3cc(Cl)ccc3oc2=O)c1` [Compound C195]: under setting [1], the “Firefly, cmpd/DMSO repeat 1” value is given as 38.7 and the “Firefly, cmpd/DMSO repeat 2” value was found to be 29.4. Also, where the note is “Table 12”, the “Firefly/Renilla (NR2F6 stable, clone F4)” value worked out at 2.1; the “Firefly, NR2F6 stable (clone F4)/pGL4” value was 7.7; the “Firefly, cmpd/DMSO repeat 1” value was 38.7; the “Firefly, cmpd/DMSO repeat 2” value amounted to 29.4.

In the case of `Cc1ccc(NC(=O)c2ccc3oc(=O)c(S(=O)(=O)c4ccc(C)cc4)cc3c2)cc1` [Compound C162], under setting [1], the “Firefly, cmpd/DMSO repeat 1” value was determined as 20.9 and the “Firefly, cmpd/DMSO repeat 2” value worked out at 20.6.

For `O=c1oc2ccccc2cc1S(=O)(=O)c1ccc(Cl)c(Cl)c1` [Compound C106], under setting [1], the “Firefly, cmpd/DMSO repeat 1” value came to 1.4 and the “Firefly, cmpd/DMSO repeat 2” value is 1.3.

Regarding `COc1ccc(S(=O)(=O)c2cc3cc(Cl)ccc3oc2=O)cc1` [Compound C203], under setting [1], the “Firefly, cmpd/DMSO repeat 1” value was 9.5 and the “Firefly, cmpd/DMSO repeat 2” value is recorded as 15.5.

For `COc1ccc(S(=O)(=O)c2cc3ccccc3oc2=O)cc1` [Compound C101], under setting [1], the “Firefly, cmpd/DMSO repeat 1” value turned out to be 4.5 and the “Firefly, cmpd/DMSO repeat 2” value is 4.7. Further, where the note is “Table 12”, the “Firefly/Renilla (NR2F6 stable, clone F4)” value worked out at 2.4; the “Firefly, NR2F6 stable (clone F4)/pGL4” value was found to be 3.6; the “Firefly, cmpd/DMSO repeat 1” value was 4.5; the “Firefly, cmpd/DMSO repeat 2” value was 4.7.

For the compound `COc1ccc2oc(=O)c(S(=O)(=O)c3ccccc3F)cc2c1` [Compound C221], under setting [1], the “Firefly, cmpd/DMSO repeat 1” value worked out at 1.3 and the “Firefly, cmpd/DMSO repeat 2” value was 0.9.

In the case of `Cc1cccn2cc(CNS(=O)(=O)c3ccccc3F)nc12` [Compound E52], the “Firefly F4, cmpd/DMSO (mean)” value was 0.7 under setting [2], 0.9 under setting [3] and 0.7 under setting [4]. In addition, the “Firefly NR2F6 full length, cmpd/DMSO (mean)” value was 1.0 under setting [2], 1.3 under setting [3] and 1.4 under setting [4].

With `COC(=O)c1ccc2oc(=O)c(S(=O)(=O)c3ccc(Cl)cc3)cc2c1` [Compound C15], under setting [1], the “Firefly, cmpd/DMSO repeat 1” value stood at 0.9 and the “Firefly, cmpd/DMSO repeat 2” value is recorded as 1.7.

Turning to `Cc1ccc(NC(=O)c2ccc3oc(=O)c(S(=O)(=O)c4ccc(F)cc4)cc3c2)cc1C` [Compound C169], under setting [1], the “Firefly, cmpd/DMSO repeat 1” value worked out at 8.8 and the “Firefly, cmpd/DMSO repeat 2” value is 10.6.

For `CCOc1cccc2cc(S(=O)(=O)c3ccc(C)cc3)c(=O)oc12` [Compound C236], for the setting “Table 9”, the “Firefly, cmpd/DMSO repeat 1” value is 4.4 and the “Firefly, cmpd/DMSO repeat 2” value turned out to be 4.9.

Consider `COc1ccccc1NC(=O)c1ccc2oc(=O)c(S(=O)(=O)c3ccccc3)cc2c1` [Compound C123], for which, under setting [1], the “Firefly, cmpd/DMSO repeat 1” value is reported as 17.7 and the “Firefly, cmpd/DMSO repeat 2” value was determined as 16.8.

Take `COc1ccc(-c2noc(Cn3ncc(C)cc3=O)n2)cc1` [Compound Z152]: the “Firefly, cmpd/DMSO (mean)” value worked out at 1.6.

Consider `Cc1ccc(NC(=O)c2ccc3oc(=O)c(S(=O)(=O)c4ccc(F)cc4)cc3c2)cc1` [Compound C163], for which, under setting [1], the “Firefly, cmpd/DMSO repeat 1” value was determined as 2.0 and the “Firefly, cmpd/DMSO repeat 2” value is 5.2.

`Cc1cc(S(=O)(=O)c2cc3cc(F)cc(F)c3oc2=O)ccc1F` [Compound C292]: under “Table 11”, the “Firefly, cmpd/DMSO repeat 1” value is 18.3 and the “Firefly, cmpd/DMSO repeat 2” value was determined as 14.8. Moreover, where the note is “Table 13”, the “Firefly/Renilla (NR2F6 stable, clone F4)” value came out at 1.1; the “Firefly, NR2F6 stable (clone F4)/pGL4” value is reported as 9.7; the “Firefly, cmpd/DMSO repeat 1” value came to 18.3; the “Firefly, cmpd/DMSO repeat 2” value turned out to be 14.8.

With `COc1cccc2cc(S(=O)(=O)c3cc(F)cc(F)c3)c(=O)oc12` [Compound C229], where the note is “Table 9”, the “Firefly, cmpd/DMSO repeat 1” value worked out at 2.9 and the “Firefly, cmpd/DMSO repeat 2” value was determined as 1.8.

Turning to `O=c1oc2ccc(Cl)cc2cc1S(=O)(=O)c1cc(F)cc(F)c1` [Compound C194], under setting [1], the “Firefly, cmpd/DMSO repeat 1” value is recorded as 10.6 and the “Firefly, cmpd/DMSO repeat 2” value worked out at 6.3. In addition, where the note is “Table 13”, the “Firefly/Renilla (NR2F6 stable, clone F4)” value was determined as 1.3; the “Firefly, NR2F6 stable (clone F4)/pGL4” value is 6.6; the “Firefly, cmpd/DMSO repeat 1” value turned out to be 10.6; the “Firefly, cmpd/DMSO repeat 2” value was found to be 6.3.

As for `COc1cccc(NC(=O)c2ccc3oc(=O)c(S(=O)(=O)c4ccc(C)cc4)cc3c2)c1` [Compound C126], under setting [1], the “Firefly, cmpd/DMSO repeat 1” value is reported as 45.1 and the “Firefly, cmpd/DMSO repeat 2” value was 44.8. Where the note is “Table 13”, the “Firefly/Renilla (NR2F6 stable, clone F4)” value is recorded as 1.0; the “Firefly, NR2F6 stable (clone F4)/pGL4” value was 9.9; the “Firefly, cmpd/DMSO repeat 1” value came out at 45.1; the “Firefly, cmpd/DMSO repeat 2” value is 44.8.

As for `COc1cc(NC(=O)c2ccc3oc(=O)c(S(=O)(=O)c4ccc(F)cc4)cc3c2)cc(OC)c1` [Compound C132], under setting [1], the “Firefly, cmpd/DMSO repeat 1” value came to 1.4 and the “Firefly, cmpd/DMSO repeat 2” value worked out at 1.4.

As for `COC(=O)c1ccc2oc(=O)c(S(=O)(=O)c3ccc(F)cc3)cc2c1` [Compound C14], under setting [1], the “Firefly, cmpd/DMSO repeat 1” value was 22.3 and the “Firefly, cmpd/DMSO repeat 2” value stood at 20.0. Besides, where the note is “Table 13”, the “Firefly/Renilla (NR2F6 stable, clone F4)” value was 1.5; the “Firefly, NR2F6 stable (clone F4)/pGL4” value is reported as 7.6; the “Firefly, cmpd/DMSO repeat 1” value came out at 22.3; the “Firefly, cmpd/DMSO repeat 2” value turned out to be 20.0.

As for `Cc1ccc(S(=O)(=O)NCc2cn3cccc(C)c3n2)cc1C` [Compound E41], the “Firefly F4, cmpd/DMSO (mean)” value is, setting by setting: under setting [2], 0.9; under setting [3], 0.7; under setting [4], 0.4. The “Firefly NR2F6 full length, cmpd/DMSO (mean)” value under setting [2] was 1.1; the “Firefly NR2F6 full length, cmpd/DMSO (mean)” value under setting [3] is 1.0; the “Firefly NR2F6 full length, cmpd/DMSO (mean)” value under setting [4] is 0.9.

Turning to `O=c1oc2ccccc2cc1S(=O)(=O)c1ccc(Cl)cc1` [Compound C105], under setting [1], the “Firefly, cmpd/DMSO repeat 1” value was found to be 5.7 and the “Firefly, cmpd/DMSO repeat 2” value amounted to 4.8. Where the note is “Table 13”, the “Firefly/Renilla (NR2F6 stable, clone F4)” value was 2.6; the “Firefly, NR2F6 stable (clone F4)/pGL4” value worked out at 3.1; the “Firefly, cmpd/DMSO repeat 1” value was found to be 5.7; the “Firefly, cmpd/DMSO repeat 2” value came to 4.8.

As for `COc1ccc(S(=O)(=O)c2cc3cc(Br)ccc3oc2=O)cc1` [Compound C199], under setting [1], the “Firefly, cmpd/DMSO repeat 1” value stood at 19.3 and the “Firefly, cmpd/DMSO repeat 2” value was 16.1.

Take `Cc1cc(C)cc(S(=O)(=O)c2cc3cc(Cl)ccc3oc2=O)c1` [Compound C186]: under setting [1], the “Firefly, cmpd/DMSO repeat 1” value came out at 1.0 and the “Firefly, cmpd/DMSO repeat 2” value is reported as 6.9.

For the compound `CCN(CC)c1ccc2cc(S(=O)(=O)c3ccc(Br)cc3)c(=O)oc2c1` [Compound C278], under setting [1], the “Firefly, cmpd/DMSO repeat 1” value is 2.4 and the “Firefly, cmpd/DMSO repeat 2” value was 3.0.

With `COc1ccc2cc(S(=O)(=O)c3ccc(F)c(Cl)c3)c(=O)oc2c1` [Compound C275], under setting [1], the “Firefly, cmpd/DMSO repeat 1” value worked out at 2.6 and the “Firefly, cmpd/DMSO repeat 2” value came to 2.5.

`Cc1ccc(NC(=O)c2ccc3oc(=O)c(S(=O)(=O)c4ccccc4)cc3c2)c(C)c1` [Compound C164]: under setting [1], the “Firefly, cmpd/DMSO repeat 1” value is given as 29.3 and the “Firefly, cmpd/DMSO repeat 2” value turned out to be 19.6. Under “Table 12”, the “Firefly/Renilla (NR2F6 stable, clone F4)” value was determined as 2.1; the “Firefly, NR2F6 stable (clone F4)/pGL4” value was found to be 8.2; the “Firefly, cmpd/DMSO repeat 1” value came to 29.3; the “Firefly, cmpd/DMSO repeat 2” value is on record as 19.6.

Consider `COc1cccc2cc(S(=O)(=O)c3ccc(C)c(C)c3)c(=O)oc12` [Compound C242], for which, for the setting “Table 9”, the “Firefly, cmpd/DMSO repeat 1” value came out at 1.1 and the “Firefly, cmpd/DMSO repeat 2” value is on record as 1.1.

For the compound `COc1cccc2cc(S(=O)(=O)c3ccc(F)c(Cl)c3)c(=O)oc12` [Compound C250], where the note is “Table 9”, the “Firefly, cmpd/DMSO repeat 1” value amounted to 1.2 and the “Firefly, cmpd/DMSO repeat 2” value is on record as 1.8.
